Measured values reported in patent US20080085859A1, “Drug Promoting Ceramide Transport, Base Sequence for Producing the Drug, Method of Measuring Activity of Promoting Ceramide Release and Method of Measuring Activity of Promoting Intermembrane Ceramide Transfer” (JAPAN SCIENCE AND TECHNOLOGY AGENCY, priority 2003, published 2008).

B1: FL-hCERT: hCERT with FL (FLAG) sequence added to amino end (protein, UniProt Q9Y5P4 1-624, looked up)
Ceramide transfer protein: MSDNQSWNSSGSEEDPETESGPPVERCGVLSKWTNYIHGWQDRWVVLKNNALSYYKSEDETEYGCRGSICLSKAVITPHDFDECRFDISVNDSVWYLRAQDPDHRQQWIDAIEQHKTESGYGSESSLRRHGSMVSLVSGASGYSATSTSSFKKGHSLREKLAEMETFRDILCRQVDTLQKYFDACADAVSKDELQRDKVVEDDEDDFPTTRSDGDFLHSTNGNKEKLFPHVTPKGINGIDFKGEAITFKATTAGILATLSHCIELMVKREDSWQKRLDKETEKKRRTEEAYKNAMTELKKKSHFGGPDYEEGPNSLINEEEFFDAVEAALDRQDKIEEQSQSEKVRLHWPTSLPSGDAFSSVGTHRFVQKPYSRSSSMSSIDLVSASDDVHRFSSQVEEMVQNHMTYSLQDVGGDANWQLVVEEGEMKVYRREVEENGIVLDPLKATHAVKGVTGHEVCNYFWNVDVRNDWETTIENFHVVETLADNAIIIYQTHKRVWPASQRDVLYLSVIRKIPALTENDPETWIVCNFSVDHDSAPLNNRCVRAKINVAMICQTLVSPPEGNQEISRDNILCKITYVANVNPGGWAPASVLRAVAKREYPKFLKRFTSYVQEKTAGKPILF
modifications: N-terminal FLAG tag

Tests used:
Assay type in all cases: cell-based, Chinese hamster
[1] = tested on: CHO-K1 cell; experiment: influence of ceramide transport inhibitor on SM synthesis, [14C] serine labeling; conditions: 1 μM, FIG. 8
Description: (§1) CHO-K1 cell, LY-A2 cell, and LY-A2/hCERT cell were inoculated at the cell density of 1.0×10^6 per culture dish having the 60-mm diameter, and cultured at 33° C. overnight. Subsequently, it was exchanged with […] of Nutridoma medium, after [^14C] serine (0.75 μCi) or [^14C] choline (1.0 μCi) have been added, in the case where [^14C] serine is added, it was cultured for 2 hours, and in the case where [^14C] choline is added, it was cultured at 33° C. for 5 hours. However, in the case where the influence on (1R, 3R) HPA-12 is analyzed, after it was pretreated at […] for 15 minutes in 1.5 mL of Nutridoma medium to which 1 μM of (1R,3R) HPA-12 has been added (in control experiment, dimethylsulfoxide used for dissolving a drug was added at the concentration corresponding to 0.01% of the final concentration), [^14C] serine was added, and cultured at 33° C. for 2 hours. After the cell was washed twice in 2 mL of cooled PBS, dissolved in 900 μL of sodium dodecyl sulfate (SDS), then, 800 μL and 20 μL of dissolved matter were used for determining lipid extraction and protein concentration. For the purpose of analyzing lipid labeled with [^14C] serine, the lipid was separated by TLC by making acetic methyl/n-propanol/chloroform/methanol/0.25% KCl (25:25:25 10:9, volume ratio) development solvent. The radioactive lipid separated on the plate was detected and analyzed by an image analyzer.
(§2) The present inventors have already found a selective inhibitor with respect to ATP dependent ceramide transport pathway (J. Biol. Chem. 276,43994-44002, 2001). For the purpose of examining whether or not ceramide transport pathway recovered by introducing hCERT is a transport pathway which is sensitive to (1R,3R) HPA-12, the analysis of the influence of (1R, 3R) HPA-12 treatment with respect to SM biosynthesis was performed by performing a lipid metabolism labeling experiment using radioactive serine.

[2] = tested on: LY-A2 cell; experiment: as above; conditions: FIG. 8
Description: as §1, §2

[3] = tested on: LY-A2 cell; experiment: MCD resistance by counting the number of survived cells; conditions: LY-A2 cell infected with expressing retrovirus, FIGS. 10(A), 12(A)
Description: The method of selecting function recovery strain used herein was performed on the basis of the knowledge that a cell whose SM content has been reduced becomes highly sensitive to cholesterol drawing reagent/methylcyclodextrin (MCD), and the cell whose SM content has been recovered recovers the resistance to MCD. As described in the foregoing paragraph, after the infected cell that has been seeded and cultured at 33° C. overnight was washed twice in 10 mL of serum-free F12 medium, it has been at 37° C. for one hour in 25 mL. After the culture dish was washed three times with 12 mL of PBS, 25 mL of F12/NBS was added and cultured at 33° C. for 7 to 10 days. […]
It has been validated whether or not CERT protein and CERTL which is a large separate splicing type product having 26 amino acid residue complements the deletion of LY-A cell. […] The MCD resistance of the obtained (LY-A2+FL-hCERT) cell and ((LY-A2+FL-hCERTL) cell were measured by counting the number of survived cells in accordance with the method described in <Method of selecting MCD resistance recovery strain>. Moreover, the MCD resistance of (LY-A2+empty vector) cell, CHO-K1 cell and LY-A2 cell obtained by infecting LY-A2 cell using pLIB vector in which gene has not been inserted were also similarly measured. The results are indicated in FIG. 10(A). […]

Molecule | inhibition of SM synthesis [1] | inhibition of SM synthesis ([2]; 1 μM, cell printed as LY-A2 cell (first sentence of b175)) | additional inhibition of SM biosynthesis ([2]; LY-A2 cell where HPA-12-sensitive pathway is impaired) | MCD resistance [3]
CCCCCCCCCCCC(=O)N[C@@H](CO)C[C@@H](O)c1ccccc1 [(1R,3R) HPA-12, (1R,3R)N-(3-hydroxy-1-hydroxymethyl-3-phenyprol) dodecane amide] | significantly inhibited | significantly inhibited | another additional inhibition was not seen | –
B1 | – | – | – | significantly acquired the MCD resistance
